The record followed here is patent publication US8815900B2, “Compounds and compositions for reducing lipid levels” (CVI Pharmaceuticals Limited, priority 2007, dated 2014).

Structures are written as SMILES.

Data set [1] deals with hypercholesterolemic hamsters. As to the kind of experiment: In vivo lipid lowering of (14R,13S)-CRDL in hamsters on high cholesterol diet. Also on record: species or system Golden Syrian male hamsters. To be noted: 10 mg/kg daily i.p., 17 days. On the procedure: In another experiment, 18 Golden Syrian male hamsters under a high cholesterol (HC) diet were divided into two treatment groups of i.p. One group was treated with (14R,13S)-CRDL at a daily dose of 10 mg/kg and the control group received equal amount of vehicle.
The HC diet markedly damaged the liver function of the hamsters, which was evident by elevated alanine aminotransaminase (ALT) and aspartate aminotransaminase (AST) in blood. (14R,13S)-CRDL treatment ameliorated the liver function under the HC diet and lowered the serum level of ALT by 60% and lowered the serum level of AST by 30% compared to control (FIG. 10B).

For data set [2], the system named is LDLR ligand uptake activity in HepG2 cells. The data set can be described thus: DiI-LDL uptake (LDLR ligand uptake activity) in HepG2 cells. Also: key: +: slightly increased fluorescent intensity over control; ++: modestly increased fluorescent intensity over control; +++: strongly increased fluorescent intensity over control. Conditions: 20 hours, B, compound dose ≦ 40 μM. Format: cell-based, Human. The method, then:
HepG2 cells (2×10^5 cells/well) in 24-well culture plates were treated with various compounds at indicated concentrations for 20 hours. The fluorescent 1,1′-dioctadecyl-3,3,3′,3′-tetramethylindocarbocyanin perchlorate (DiI-LDL) (Biomedical Technologies, Stoughton, Mass.) at a concentration of 2 μg/mL was added to cells at the end of treatment. After 4 hours, the medium was removed, cells were washed with cold PBS, and were examined immediately under a fluorescent microscope (Nikon) at 200× amplification. The fluorescent intensity in compound-treated cells was compared to that in untreated control cells. […] In these experiments berberine chloride was used for comparison.

Data set [3] deals with Wister male rats under a high fat and high cholesterol diet. The data set can be described thus: Lipid lowering and body weight effects of (14R,13S)-CRDL hydrochloride salt in Wister rats. Format: in vivo. On the procedure: Male Wister rats were used as another animal model to examine the in vivo effects of (14R,13S)-CRDL in plasma lipid levels.
In one experiment, 18 Wister male rats under a high fat and high cholesterol diet were divided into 2 groups. One group was given (14R,13S)-CRDL hydrochloride salt orally at a daily dose of 75 mg/kg by an orogastric tube for 4 weeks, and the control group received daily treatment of equal amount of vehicle (0.1 M sodium phosphate, pH 3.5). Serum lipid levels were measured weekly.
At the end of treatment, Rats were sacrificed and blood and sera were collected to measure several critical parameters for liver function and kidney function. […] Kidney function and blood glucose level were not changed by the treatment (FIG. 11E).
The food intake and body weight gains were measured every week during the 4-week treatment period. […] In the first week, the amount of food consumed was decreased in CRDL-treated group. […] The ability of CRDL to activate AMPK signaling pathway to increase energy expenditure and to reduce fat accumulation likely contributes to this weight reducing effect.

Data set [4] has as its system LDLR mRNA expression in HepG2 cells. The data set can be described thus: LDLR mRNA expression in HepG2 cells, semi-quantitative RT-PCR. Format: cell-based, Human. To be noted: 8 hours, indicated doses, corrected by GAPDH mRNA (FIG. 3). On the procedure:
HepG2 cells obtained from American Tissue Culture Collection (Manassas, Va., USA) were seeded in 6-well culture plates at a density of 0.8×10^6 cells/well cultured in EMEM containing 0.5% FBS and were treated with each purified compound at indicated doses for 8 hours. Total RNA was isolated, and 2 μg per sample was reverse transcribed with random primers using M-MLV (Promega) at 37° C. for 1 hour. PCR was carried out at 94° C. for 30 sec, 60° C. for 30 sec, and 72° C. for 30 sec with initial activation of the enzyme at 94° C. for 1 minute. Thirty cycles were performed for LDLR and GAPDH. PCR was performed using primers HLDLR-up and HLDLR-lo for LDLR and primers HGAPDH-up and HGAPDH-lo for GAPDH. The PCR products were separated on a 1% agarose gel and the band intensity was quantitated. LDLR mRNA levels were corrected by measuring GAPDH mRNA levels.
After the treatment, a portion of cells was harvested for total RNA, and another portion of cells was used for TG measurement. The LDLR mRNA levels were assessed by semi quantitative RT-PCR, and the cellular TG content was determined as described above.

[5] abbreviates: HC diet, compared to untreated group.
[6] abbreviates: (14R,13S)-CRDL hydrochloride salt orally 75 mg/kg daily, 4 weeks.
Setting [7] is: end of 4-week treatment, 75 mg/kg daily orally.
The mark [8] stands for this setting: end of 4-week treatment, 75 mg/kg daily orally, vs control group.

For the compound `COc1cc2c(cc1OC)[C@H]1[C@@H](C)c3ccc(OC)c(OC)c3CN1CC2` [CRDL, 14R,13S-(+)-corydaline], the “adverse effects during the drug treatment” value in data set [1] is recorded as “no adverse effects were observed”. Moreover, in data set [1] (HC diet), the “blood level of glucose” value was “not changed” and the “blood level of urea nitrogen (BUN)” value is “not changed”. Moreover, in data set [1] (HC diet, compared to control), the “lowering of serum level of ALT” value is listed as 60% and the “lowering of serum level of AST” value is 30%. Besides, in data set [1] (setting [5]), the “reduction of plasma TC” value is given as 41.9%, the “reduction of plasma TG” value was 46.0% and the “reduction of plasma non-HDL-c” value is recorded as 50%. Besides, in data set [1] (HC diet, p<0.001), the “reduction of level of creatinine (CREA)” value is 20%. Moreover, the “Activity on DiI-LDL uptake” value in data set [2] was “++”. Besides, the body weight result in data set [3] (4 weeks, 75 mg/kg daily orally, high fat and high cholesterol diet) is “maintained constant”. Further, in data set [3] (setting [6]), the “LDL-c level, % of control” value was 25.6%; the “LDL-c level, % of day 0” value is listed as 22.4%; the “TC, % compared to the control group” value amounted to 33.8%; the “TC, % of the pretreatment level” value came out at 33.0%. Besides, in data set [3] (setting [6]), the “TG level, % of the control” value was determined as 29%; the “TG level, % of the pretreatment level (day 0)” value is given as 27%; the “adverse effects during the entire treatment” value is on record as “No any adverse effects were observed”. Moreover, in data set [3] (setting [7]), the blood glucose level entry is “not changed” and the “kidney function (BUN, CREA)” value was “not changed”. In data set [3] (setting [8]), the “serum level of ALT” value was “statistically lower” and the “serum level of AST” value is given as “statistically lower”. The “LDLR mRNA expression” value in data set [4] was “potent and dose-dependent effects”.
